“Also recorded” adds a separate entry of the source.
What was measured:
[1] = tested on: VSMCs; assay: VSMC proliferation assay by BrdU incorporation; format: cell-based, human; details: 10^−7 M, 48-h treatment, mean±SEM; control 0.81±0.03
Method: (§1) VSMCs were grown in 96-well plates or 8-well chamber slides and incubated with 10^−7 M of MPA (Sigma-Aldrich) or ETO (Organon) or P4 (Sigma-Aldrich) or vehicle±rCCL2 (R&D Systems)±STAT1 inhibitor, 5′-methyl-thioadenosine (MTA; EMD Millipore) (19) for 48 or 72 h. VSMCs were then analyzed for apoptosis by an ELISA based apoptosis kit (Roche) or cleaved-caspase 3 immunostaining. VSMC proliferation was measured by BrdU incorporation Kit (Cell Signaling). (See further details in SI Materials and Methods).
VSMCs were thawed and cultured in T-75 cell culture flasks in medium 231 (M231; Life Technologies) with smooth muscle growth supplement (5% FBS; 2 ng/mL human basic fibroblast growth factor, 0.5 ng/mL human epidermal growth factor, 5 ng/mL heparin, 0.2 μg/mL insulin and 5 μg/mL BSA; Life Technologies) with 100 U/mL penicillin, 100 μg/mL streptomycin, and 0.25 μg/mL fungizone. Confluent VSMCs were washed twice with 1×PBS to remove residual serum, and then passaged (5,000 cells per well) in 96-well plates and incubated in parallel in M231 with 1% charcoal striped FBS with 0.1% ethanol (vehicle, control), 10^−7 M MPA (Sigma-Aldrich), 10^−7 M ETO (Organon), or 10^−7 M P4 (Sigma-Aldrich)±rCCL2 (monocyte chemotactic protein-1; R&D Systems)±STAT1 inhibitor, 5′-methyl-thioadenosine (MTA; EMD Millipore) for 48 or 72 h.
BrdU (Cell Signaling) 1× in 100-μL M231 was added to each well during the final 24 h of incubation. At the end of 48- or 72-h incubation period, medium was removed and the wells washed twice with ice-cold PBS. VSMC proliferation was measured using BrdU cell proliferation Kit (Cell Signaling) at room temperature. Cells was incubated in 100 μL per well of the fixing/denaturing solution for 30 min, and then replaced by 100 μL per well BrdU detection antibody solution for 1 h. Following three rinses with wash buffer, plates were incubated in HRP-conjugated secondary antibody (100 μL per well) for 30 min. After three additional rinses with wash buffer, tetramethylbenzidine substrate solution (100 μL per well) was added for 20 min and the reaction stopped by adding 100 μL per well STOP solution. Absorbance was measured at 450 nm using Spectra Max190 microplate reader (Molecular Devices) to detect BrdU incorporation in each well.

[2] = tested on: VSMCs; assay: VSMC apoptosis assay (ELISA, cleaved caspase-3 immunostaining, nuclear fragmentation); format: cell-based, human; details: 10^−7 M, 48 h, vs control
Method: as §1
This assay detects late-stage apoptosis by quantifying specific mono- and oligonucleosomes in the cytoplasmic fraction of cell lysates using mouse monoclonal antibodies directed against DNA and histones. In late-stage apoptosis (following nuclear fragmentation), cell cytoplasm contains mono- and oligonucleosomes, absent in normal (nonapoptotic) cells. The nucleosomes contained in the sample bind via their histone component to the immobilized antihistone antibody. Anti-DNA peroxidase reacts with the DNA part in the nucleosome. After removal of unbound peroxidase conjugate, the amount of peroxidase retained in the immunocomplex is detected by measuring colorimetric reaction.
Apoptosis index was determined in a second set of experiments. VSMC cultures (10,000 cells per wells) were incubated in 96-well plates with the treatments described above, at room temperature. Briefly, at the end of 48- or 72-h incubation periods, cells were washed three times in ice-cold PBS and cell lysate prepared by incubating each well in 200-μL lysis buffer for 30 min, followed by centrifugation at 200×g for 10 min. Duplicate 20-μL supernatant of cytoplasmic fractions from each treatment were carefully pipetted into streptavidin-coated microplates. A 20-μL VSMC culture supernatant devoid of cell fractions was used as a negative control, and 1-, 5-, 10-, and 20-μL supernatants containing camptothecin-induced apoptotic cell fractions were used as positive controls (ELISA based cell death detection kit^plus, Roche Applied Science). Incubation buffer was used as background control (Roche Applied Science). Then, each well was brought to 100 μL by adding immunoreagent (peroxidase-conjugated anti-DNA complex) and incubated by gentle shaking (300 rpm) for 2 h. […] The immunoreaction was stopped with 100 μL ABTS Stop Solution and measured at 405 nm against 100 μL ABTS solution+100 μL ABTS stop solution as a blank (reference wavelength 490 nm) using Spectra Max190 microplate reader (Molecular Devices). […]
The first set of eight-well chamber slides was processed for cleaved caspase-3 immunocytochemistry. […] Cleaved caspase-3 immunoreactivity in groups was then evaluated as described for αSMA in the HSOCRE section. […]

| SMILES | BrdU incorporation [1] | apoptotic index [2] | apoptotic index ([2]; listed as WA) |
| --- | --- | --- | --- |
| CC(=O)O[C@]1(C(C)=O)CC[C@H]2[C@@H]3C[C@H](C)C4=CC(=O)CC[C@]4(C)[C@H]3CC[C@@]21C [MPA, medroxyprogesterone acetate] | 0.31±0.02 | did not affect | unaffected |
| CC(=O)[C@H]1CC[C@H]2[C@@H]3CCC4=CC(=O)CC[C@]4(C)[C@H]3CC[C@]12C [P4, progesterone] | 0.71±0.05 | unaffected | – |
| C#C[C@]1(O)CC[C@H]2[C@@H]3CCC4=CC(=O)CC[C@@H]4[C@H]3C(=C)C[C@@]21CC [ETO, etonogestrel] | 0.40±0.03 | unaffected; also recorded: did not affect | – |

Reference: US20180078615A1, “USE OF CCL2 TO INHIBIT ABNORMAL UTERINE BLEEDING” (UNIVERSITY OF SOUTH FLORIDA, priority 2015, published 2018)
